Legend:
[1] = target: T1, α4β1 Integrin (Homo sapiens, UniProt P05556+P13612); assay: α4β1 Integrin Adhesion Assay: Jurkat cell adhesion to human plasma fibronectin; format: cell-based; details: Jurkat cells
T1 construct: endogenous in cells; host or cells: Jurkat cells
Description: 96 well plates (Costar 3590 EIA plates) were coated with human fibronectin (Gibco/BRL, cat #33016-023) at a concentration of 10 μg/mL overnight at 4° C. The plates were then blocked with a solution of bovine serum albumin (BSA; 0.3%) in saline. Jurkat™ cells (maintained in log phase growth) were labeled with Calcein AM according to the manufacturer's instructions, and suspended at a concentration of 2×10^6 cells/mL in Hepes/Saline/BSA. The cells were then exposed to test and control compounds for 30 minutes at room temperature before transfer to individual wells of the fibronectin coated plate. Adhesion was allowed to occur for 35 minutes at 37° C. The wells were then washed by gentle aspiration and pipetting with fresh saline. Fluorescence associated with the remaining adherent cells was quantified using a fluorescence plate reader at EX 485/EM 530.
Cell cultures were prepared by first splitting the stationary phase Jurkat™ cells at 1:10 on day one, and 1:2 on day two to perform assay on day 3. The cells split 1:10 on day one were split 1:4 on day 3 for a day 4 assay.
The assay plates were prepared by first making a working solution of Gibco/BRL Human Fibronectin (cat # 33016-023) in PBS++, at 10 μg/mL.
A Costar 3590 EIA plate was then coated with 50 μL/well for 2 hours at room temperature (thought it can also be left overnight at 4° C.). Finally the plate was asperated and blocked with Hepes/Saline Buffer, 100 μL/well, for 1 hour at RT followed by washing three times with 150 μL of PBS++.
Compound dilutions were accomplished by preparing 1:3 serial dilutions of compounds as follows. For each plate (4 compounds/plate) 600 μL were added to 4 Bio-Rad Titertubes in a Titertube rack. Enough compound was added to each appropriate tube to give a 2× concentration using methods well known in the art. Using Falcon Flexiplates, 100 μL of Hepes/Saline buffer or human serum were added to rows B through G. A multi-channel pipetter set to 180 μL was used to with four tips spaced evenly the pipetter. Each set of four tubes was mixed 5 times and 180 μL of 2× compound was transferred to the first column of each compound dilution in Row B, leaving Row A empty. 180 μL were added to the other wells in Row A. Serial dilutions were performed down the plate by transferring 50 μL to the next dilution and mixing 5 times, changing tips each time after mixing. Dilutions were stopped at Row F. Row G had no compound present.
A 20 μg/mL solution in Hepes/Saline buffer or human serum, of 21/6 antibody was the positive control and was set aside in a reagent trough to add to cell suspension plate.
The cell staining was accomplished by first harvesting the log-phase Jurkat™ cells by centrifugation in 50 mL tubes (1100 rpm for 5 minutes). The cells were resuspended in 50 mL PBS++, spun, and resuspend in 20 mL PBS++. The cells were stained by adding 20 μL of Calcein AM for 30 minutes R.T. The volume was brought to 50 mL with Hepes/Saline buffer and the cells were counted, spun, and resuspend to 2×10^6 cells/mL in Hepes/Saline buffer or human serum.
The compounds were incubated using the following procedure. In a new flexiplate, 65 μL of stained cells were added to Rows B through H. Then 65 μL of 2× compounds were added to the appropriate rows following the plate setup and mixed 3×. 65 μL of 2×-21/6 antibody were added to Row H and mixed 3×. Finally the plate was incubated at room temperature for 30 minutes.
Fibronectin adhesion was measured using a fluorescent plate reader at EX 485/EM 530 after the following work up procedure. After incubation, the cells were mixed 3× and 100 μL were transferred to the Fibronectin coated plates and incubated at 37° C. for about 35 minutes. Each plate was washed, row by row, by gently pipetting 100 μL of R.T. PBS++ down the sides of the wells and turning the plate 90 degrees to aspirate. This procedure was repeated for a total of 3 washes. Each well was filled with 100 μL after washing by pipetting down the side of the well. […]

[2] = Cassette dosing and serum analysis for determination of oral bioavailability; format: in vivo, rat; details: male SD rats, oral cassette of 6 compounds, total dose 10 mg/kg, plasma at 4, 8, 12 h
Description: The oral bioavailability was screened by dosing rats with a cassette, i.e. mixture of 6 compounds per dosing solution. The cassette included 5 test articles and a standard compound, for a total dose of 10 mg/kg. Each compound/test article was converted to the sodium salt with equimolar 1 N NaOH and dissolved in water at 2 mg/mL. The cassette was prepared by mixing equal volumes of each of the six solutions. The cassette dosing solution was mixed well and then the pH was adjusted to 7.5–9. The dosing solution was prepared the day before the study and stirred overnight at room temperature.
Male Sprague Dawley (SD) rats from Charles River Laboratories, 6–8 weeks old were used in this screen. Rats were quarantined for at least one day and had continuous access to food and water. On the night before the administration of the cassette, the rats were fasted for approximately 16 h.
Four SD rats were assigned in each cassette. A single dose of the dosing solution was administered orally to each rat. The dosing volume (5 mL/kg) and time were recorded and rats were fed 2 h after dosing.
Blood samples were collected via cardiac puncture at the following time points: 4 h, 8 h and 12 h. Immediately prior to blood collection, rats were anesthetized with CO2 gas within 10–20 seconds. After the 12-hour samples were collected, the rats were euthanized via CO2 asphyxiation followed by cervical dislocation.
Blood samples were kept in heparinized microtainer tubes under sub-ambient temperature (4° C.) before they were processed. Blood samples were centrifuged (10000 rpm for 5 minutes) and plasma samples were removed and stored in a −20° C. freezer until analyzed for drug levels. Drug levels in the plasma were analyzed using the following protocol for direct plasma precipitation.
The in vivo plasma samples were prepared in a 1.5 mL 96-well plate, by adding, in order, 100 μL of the test plasma, 150 μL of methanol, followed by vortexing for 10–20 seconds. 150 μL of 0.05 ng/μL of an Internal Standard in acetonitrile were added and vortexed for 30 seconds.
The standard curve samples were prepared in a 1.5 mL 96-well plate, by adding, in order, 100 μL of control mouse plasma, followed by 150 μL of methanol and vortexing for 10–20 seconds. 150 μL of 0.05 ng/μL of an Internal Standard in acetonitrile were added and vortexed for 30 seconds. The samples were spiked with 0–200 ng (10 concentrations) of the compound of interest in 50% methanol to obtain a standard curve range of 0.5 ng/mL–2,000 ng/mL. Again, the sample was vortexed for 30 seconds.
The samples were then spun for 20–30 minutes at 3000 rpm in an Eppendorf microfuge before 80–90% of supernatant was transferred into a clean 96-well plate. The organic solvent was then evaporated until the samples were dry (under N2 at 40° C./30–60 min (ZymarkTurbovap)).
The residue was then dissolved in […] mobile phase (50% CH3OH/0.1% TFA). LC/MS/MS was then run using a PE-Sciex API-3000 triple quadurpole mass spectrometer (SN0749707), Perkin-Elmer, Series200auto-sampler, and shimadzu 10A pump. Acquisition was done with PE-Sciex Analyst (v1.1) and data analysis and quantification were accomplished using PE-Sciex Analyst (v1.1). A 5–50 μL sample volume was injected onto a reverse phase ThermoHypersil DASH-18 column (Keystone 2.0×20 mm, 5 μm, PN: 8823025-701) using a mobile phase of 25% CH3OH, 0.1% TFA-100% CH3OH, 0.1% TFA. The run time was about 8 minutes at a flow rate of about 300 μL/minutes.
The Area Under the Curve (AUC) was calculated using the linear trapezoidal rule from t=0 to the last sampling time tx (see Handbook of Basic Pharmacokinetics, Wolfgang A. Ritschel and Gregory L. Kearns, 5th ed, 1999). AUC^0→tx═S((Cn+Cn+1)/2))·(tn+1−tn)[(μg/mL)h]
In the case of the cassette dosing paradigm, samples at 4, 8 and 12 h post extravascular dosing, the AUC was calculated from t=0 to t=12 h.

[3] = IC50, Cell Adhesion to Human Plasma Fibronectin (With Human Serum), with human serum
[4] = IC50, Cell Adhesion to Human Plasma Fibronectin (Without the Human Serum), without human serum

T1 sequence (P13612 34-1032): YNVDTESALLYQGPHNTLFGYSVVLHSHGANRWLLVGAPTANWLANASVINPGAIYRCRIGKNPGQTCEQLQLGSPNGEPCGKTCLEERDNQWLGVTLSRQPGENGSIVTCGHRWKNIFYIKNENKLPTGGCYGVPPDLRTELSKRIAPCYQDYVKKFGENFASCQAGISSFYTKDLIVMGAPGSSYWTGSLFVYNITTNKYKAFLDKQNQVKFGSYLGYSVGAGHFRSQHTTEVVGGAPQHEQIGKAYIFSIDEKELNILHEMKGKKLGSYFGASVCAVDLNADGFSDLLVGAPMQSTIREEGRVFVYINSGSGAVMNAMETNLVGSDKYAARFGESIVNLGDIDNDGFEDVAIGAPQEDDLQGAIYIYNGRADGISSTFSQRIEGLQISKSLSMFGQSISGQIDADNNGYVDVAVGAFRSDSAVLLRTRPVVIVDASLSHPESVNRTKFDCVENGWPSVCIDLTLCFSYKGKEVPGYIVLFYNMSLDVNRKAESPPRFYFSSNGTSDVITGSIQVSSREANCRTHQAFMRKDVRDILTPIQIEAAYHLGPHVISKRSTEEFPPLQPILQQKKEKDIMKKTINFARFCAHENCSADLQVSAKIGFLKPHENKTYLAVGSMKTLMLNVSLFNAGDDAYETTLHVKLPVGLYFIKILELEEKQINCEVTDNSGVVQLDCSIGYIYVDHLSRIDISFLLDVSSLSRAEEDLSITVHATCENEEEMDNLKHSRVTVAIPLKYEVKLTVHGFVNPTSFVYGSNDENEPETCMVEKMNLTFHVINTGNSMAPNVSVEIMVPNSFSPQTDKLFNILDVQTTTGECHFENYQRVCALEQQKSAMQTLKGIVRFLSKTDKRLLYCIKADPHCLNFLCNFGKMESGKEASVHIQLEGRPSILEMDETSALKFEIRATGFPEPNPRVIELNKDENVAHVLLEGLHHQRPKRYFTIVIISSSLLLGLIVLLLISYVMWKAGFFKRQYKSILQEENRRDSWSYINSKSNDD
T1 sequence (P05556 21-798): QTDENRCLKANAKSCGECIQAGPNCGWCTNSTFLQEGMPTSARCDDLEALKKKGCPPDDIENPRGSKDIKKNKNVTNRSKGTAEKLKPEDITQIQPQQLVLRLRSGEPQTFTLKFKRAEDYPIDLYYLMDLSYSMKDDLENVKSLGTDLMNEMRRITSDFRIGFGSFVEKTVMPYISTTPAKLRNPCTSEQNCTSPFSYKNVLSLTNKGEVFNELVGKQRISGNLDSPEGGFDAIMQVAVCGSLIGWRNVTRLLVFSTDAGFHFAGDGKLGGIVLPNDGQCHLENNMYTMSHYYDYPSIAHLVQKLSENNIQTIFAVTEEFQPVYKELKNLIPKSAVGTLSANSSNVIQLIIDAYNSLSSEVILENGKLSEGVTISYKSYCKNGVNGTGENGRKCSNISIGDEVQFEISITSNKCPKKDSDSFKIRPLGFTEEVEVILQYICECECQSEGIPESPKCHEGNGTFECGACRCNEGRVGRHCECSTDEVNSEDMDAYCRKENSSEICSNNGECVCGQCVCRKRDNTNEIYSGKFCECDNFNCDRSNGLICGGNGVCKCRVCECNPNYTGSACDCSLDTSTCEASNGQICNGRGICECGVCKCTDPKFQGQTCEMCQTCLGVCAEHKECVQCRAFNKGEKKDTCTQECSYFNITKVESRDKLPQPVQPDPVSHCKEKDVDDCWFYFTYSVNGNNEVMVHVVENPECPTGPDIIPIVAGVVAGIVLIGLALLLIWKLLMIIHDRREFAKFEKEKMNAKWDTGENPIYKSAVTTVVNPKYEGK

Molecule	IC50, Cell Adhesion to Human Plasma Fibronectin (With Human Serum) ([1]; with human serum)	IC50, Cell Adhesion to Human Plasma Fibronectin (Without the Human Serum) ([1]; without human serum)	AUC (average AUC 0→12 h) [2]	IC50 [1, 3]	IC50 [1, 4]
2-{2-diethylamino-5-[(2-fluorobenzenesulfonyl)methylamino]pyrimidin-4-ylamino}-3-(4-dimethylcarbamoyloxyphenyl)propionic acid [Example 6]	0.3138 µg/mL	0.511 ng/mL	0.6538 (μg/mL)h	–	–
2-{2-diethylamino-5-[(3,4-difluorobenzenesulfonyl) ethylamino]pyrimidin-4-ylamino}-3-(4-dimethylcarbamoyloxyphenyl) propionic acid [Example 12]	0.06 µg/mL	3 ng/mL	0.8447 (μg/mL)h	–	–
2-{2-diethylamino-5-[(4-chlorobenzenesulfonyl)ethylamino] pyrimidin-4-ylamino}-3-(4-dimethylcarbamoyloxyphenyl)propionic acid [Example 13]	0.075 µg/mL	4 ng/mL	1.5806 (μg/mL)h	–	–
2-{2-diethylamino-5-[(4-chlorobenzenesulfonyl)methylamino]pyrimidin-4-ylamino}-3-(4-dimethylcarbamoyloxyphenyl)propionic acid [Example 2]	0.317 µg/mL	2 ng/mL	1.8689 (μg/mL)h	–	–
2-{2-diethylamino-5-[(4-fluorobenzenesulfonyl)allylamino]pyrimidin-4-ylamino}-3-(4-dimethylcarbamoyloxyphenyl)propionic acid [Example 22]	0.02529 µg/mL	1.506 ng/mL	0.6297 (μg/mL)h	–	–
2-{2-diethylamino-5-[(4-fluorobenzenesulfonyl)ethylamino]pyrimidin-4-ylamino}-3-(4-dimethylcarbamoyloxyphenyl)propionic acid [Example 9]	0.106 µg/mL	1 ng/mL	1.564 (μg/mL)h	–	–
2-{2-diethylamino-5-[(4-fluorobenzenesulfonyl)methylamino]pyrimidin-4-ylamino}-3-(4-dimethylcarbamoyloxyphenyl)propionic acid [Example 1]	0.318 µg/mL	2 ng/mL	2.3308 (μg/mL)h	–	–
2-{2-diethylamino-5-[(benzenesulfonyl)methylamino]pyrimidin-4-ylamino}-3-(4-dimethylcarbamoyloxyphenyl)propionic acid [Example 5]	1.851 µg/mL	1.414 ng/mL	0.9577 (μg/mL)h	–	–
CCN(CC)c1ncc(N(C)S(=O)(=O)c2ccc(F)c(F)c2)c(N[C@@H](Cc2ccc(OC(=O)N(C)C)cc2)C(=O)O)n1 [Example 3]	–	–	1.5483 (μg/mL)h	251 nM	3.3 nM
CCN(CC)c1ncc(N(C)S(=O)(=O)c2ccc(Cl)c(Cl)c2)c(N[C@@H](Cc2ccc(OC(=O)N(C)C)cc2)C(=O)O)n1 [Example 4]	–	–	0.5965 (μg/mL)h	625 nM	6.25 nM
CCN(CC)c1ncc(N(C)S(=O)(=O)c2cccc(F)c2)c(N[C@@H](Cc2ccc(OC(=O)N(C)C)cc2)C(=O)O)n1 [Example 7, 2-{2-diethylamino-5-[(3-fluorobenzenesulfonyl)methylaminol]pyrimidin-4-ylamino}-3-(4-dimethylcarbamoyloxyphenyl) propionic acid]	–	–	0.717 (μg/mL)h	997 nM	1.39 nM
CCN(CC)c1ncc(N(C(C)C)S(=O)(=O)c2ccc(F)cc2)c(N[C@@H](Cc2ccc(OC(=O)N(C)C)cc2)C(=O)O)n1 [Example 8]	–	–	0.5088 (μg/mL)h	264 nM	4.87 nM
CCN(CC)c1ncc(N(C(C)C)S(=O)(=O)c2ccc(F)c(F)c2)c(NC(Cc2ccc(OC(=O)N(C)C)cc2)C(=O)O)n1 (stereo not drawn) [Example 10, 2-{2-diethylamino-5-[(3,4-difluorobenzenesulfonyl)isopropylamino]pyrimidin-4-ylamino}-3-(4-dimethylcarbamoyloxyphenyl) propionic acid]	–	–	0.1215 (μg/mL)h	404 nM	7.33 nM

Source: patent publication US7008949B2, “Heterocyclic compounds which inhibit leukocyte adhesion mediated by α4 integrins” (Elan Pharmaceuticals, Inc., priority 2003, dated 2006)
